In ChEMBL document CHEMBL5154808, “Novel β-Hairpin Antimicrobial Peptides Containing the β-Turn Sequence of -RRRF- Having High Cell Selectivity and Low Incidence of Drug Resistance” (J Med Chem, 2022):
Active and inactive are the calls of the source. The calls are words filed in the database; no cut-off is given here.

Key:
Escherichia coli [1] = assay: Antimicrobial activity against Escherichia coli ATCC 25922 assessed as reduction in bacterial growth incubated for 18 hrs in presence of 1 mM MgCl2 by CLSI protocol based broth microdilution method (reference value: 4 uM); type: functional
Staphylococcus aureus [2] = assay: Antimicrobial activity against Staphylococcus aureus ATCC 25923 assessed as reduction in bacterial growth incubated for 18 hrs in presence of 4 uM FeCl3 by CLSI protocol based broth microdilution method (reference value: 4 uM); type: functional
[3] = Acute toxicity in Kunming mouse assessed as congestion in lungs at 77 mg/kg, ip by H and E staining based analysis; type: organism-based; conditions: in vivo
Staphylococcus aureus [4] = assay: Synergistic antibacterial activity against Staphylococcus aureus ATCC 25923 assessed as fractional inhibitory concentration index incubated for 18 hrs in presence of polymyxin B by checker board assay; type: functional
Escherichia coli [5] = assay: Antimicrobial activity against Escherichia coli ATCC 25922 assessed as reduction in bacterial growth incubated for 18 hrs in presence of 4 uM FeCl3 by CLSI protocol based broth microdilution method (reference value: 8 uM); type: functional
Staphylococcus aureus [6] = assay: Antimicrobial activity against Staphylococcus aureus ATCC 25923 assessed as reduction in bacterial growth incubated for 18 hrs in presence of 10% serum by CLSI protocol based broth microdilution method (reference value: 8 uM); type: functional
Staphylococcus aureus [7] = assay: Antimicrobial activity against Staphylococcus aureus ATCC 25923 assessed as reduction in bacterial growth incubated for 18 hrs in presence of 1 mM MgCl2 by CLSI protocol based broth microdilution method (reference value: 8 uM); type: functional
Staphylococcus aureus [8] = assay: Antimicrobial activity against Staphylococcus aureus ATCC 25923 assessed as reduction in bacterial growth incubated for 18 hrs in presence of 150 mM NaCl by CLSI protocol based broth microdilution method (reference value: 8 uM); type: functional
Staphylococcus aureus [9] = assay: Antimicrobial activity against Staphylococcus aureus ATCC 25923 assessed as reduction of bacterial growth at 2 times MIC incubated for 18 hrs in presence of trypsin by CLSI protocol based broth microdilution method; type: functional, organism-based
Escherichia coli [10] = assay: Synergistic antibacterial activity against Escherichia coli ATCC 25922 assessed as fractional inhibitory concentration index incubated for 18 hrs in presence of kanamycin by checker board assay; type: functional
[11] = Acute toxicity in Kunming mouse assessed as hepatocyte hyperemia in liver at 62 mg/kg, ip by H and E staining based analysis; type: organism-based

Substance	MIC (Escherichia coli [1]) [µM]	MIC (Staphylococcus aureus [2]) [µM]	Activity [3]	fractional inhibitory concentration index (FICI) (Staphylococcus aureus [4])	MIC (Escherichia coli [5]) [µM]	MIC (Staphylococcus aureus [6]) [µM]	MIC (Staphylococcus aureus [7]) [µM]	MIC (Staphylococcus aureus [8]) [µM]	Activity (Staphylococcus aureus [9])	fractional inhibitory concentration index (FICI) (Escherichia coli [10])	Activity [11]
H-RIRIRRRRFRIRIR-NH2	4	4	Toxic	0.375	–	–	–	–	–	–	–
H-KWKWKRRRFKWKWK-NH2	–	–	–	–	8	16	8	16	Active	0.3125	Toxic
